Results reported in PubChem BioAssay AID397 (SGCOxCompounds, 2006).

Molecular target: GTP-binding protein GEM (Homo sapiens) (UniProt P55040)
Experiment: GEM binders by thermal shift, biophysical, DSF, SYPRO orange, purified protein (AID 397)
Conditions: at 10 µM, protein 2 µM, buffer 10 mM HEPES, pH 7.5, NaCl 150 mM, active compounds read high
[1] = DTT 1000 µM, with dithiothreitol

GTP-binding protein GEM (Homo sapiens), sequence (P55040 whole entry, looked up): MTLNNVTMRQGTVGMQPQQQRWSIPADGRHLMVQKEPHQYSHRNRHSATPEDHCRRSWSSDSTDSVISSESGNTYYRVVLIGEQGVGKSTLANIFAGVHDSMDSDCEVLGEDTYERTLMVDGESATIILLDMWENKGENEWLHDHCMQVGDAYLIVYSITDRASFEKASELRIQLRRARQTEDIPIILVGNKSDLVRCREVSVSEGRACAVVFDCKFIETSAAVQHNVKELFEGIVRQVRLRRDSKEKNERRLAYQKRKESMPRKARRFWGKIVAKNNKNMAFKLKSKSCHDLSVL

Compound	Tm shift (DTT 1 mM) [Celsius]	Tm shift [1] [Celsius]	also measured
CN(C)CCCn1cc(C2=C(c3c[nH]c4ccccc34)C(=O)NC2=O)c2ccccc21	3.2	–	–
Oc1ccc(-c2nc(-c3ccc(F)cc3)c(-c3ccncc3)[nH]2)cc1	6	–	–
O=C1NC(=O)c2c1c1c3ccccc3[nH]c1c1[nH]c3cc(Br)ccc3c21	–	–	Tm shift (DTT 1 mM, GDP 40 µM, MgCl 1 mM): 3.1 Celsius
CCOc1c(Br)ccc2c1sc1nc[nH]c(=O)c12	–	–	Tm shift: 3.1 Celsius
N#CC(Cc1ccc(O)c(O)c1)C(=O)Nc1ccccc1 (stereo unspecified)	–	2.7	–
Nc1cc2ncnc(Nc3cccc(Br)c3)c2cc1N	3.5	–	–
N#C/C(=C(/N)Sc1ccc(N)cc1)c1ccccc1C(F)(F)F	–	2.8	–
COc1cc(O)c2c(c1)oc(=O)c1c3cc(O)c(O)cc3oc21	–	–	Tm shift (GDP 40 µM): 2.3 Celsius
Cc1ccc(NC(=O)c2snc3c(=O)[nH]cnc23)cc1	–	–	Tm shift: 2.1 Celsius
Nc1[nH]nc2nc3ccccc3nc12	–	2.5	–
Cc1ccc2c(c1Br)C(=Nc1ccc(Cl)cc1)C(=O)N2	–	–	Tm shift: 2.3 Celsius
O=c1c(-c2ccc(O)cc2)coc2cc(O)cc(O)c12	5	–	–
CC(O)(O)C1(O)C[C@@H]2O[C@@]1(C)n1c3ccccc3c3c4c(c5c6ccccc6n2c5c31)C(=O)NC4 (stereo partly specified)	–	3	–
CC(C)(C)c1nc2c3cc[nH]c(=O)c3c3cc(F)ccc3c2[nH]1	–	3	–
C/C(O)=C(\C#N)C(=O)Nc1cc(Br)ccc1Br	–	2.2	–
COC(=O)/C=C/c1cc(O)ccc1O	3.2	–	–

Compound	Tm shift (DTT 1 mM) [Celsius]	Tm shift [1] [Celsius]	also measured
Oc1cc(O)cc(/C=C/c2ccc(O)c(O)c2)c1	–	2.3	–
COc1cc2ncnc(Nc3cccc(Br)c3)c2cc1OC	5.4	–	–
Ic1cccc(CSc2nnc(-c3ccncc3)o2)c1	–	2.4	–
CC(C)n1cnc2c(Nc3cccc(Cl)c3)nc(NCCO)nc21	–	2.3	–
CCCCc1c(-c2ccc(O)cc2)[nH]c2nccnc12	–	2.7	–
COc1cc(/C=C/C(=O)CC(=O)/C=C/c2ccc(O)c(OC)c2)ccc1O	–	–	Tm shift (GDP 40 µM): 2.4 Celsius
CC[C@H](CO)Nc1nc(NCc2ccccc2)c2ncn(C(C)C)c2n1	–	2.1	–
O=c1cc(-c2ccc(O)cc2)oc2cc(O)cc(O)c12	4.1	–	–
CN(C)S(O)(O)c1ccc2c(c1)/C(=C/c1cc3c([nH]1)CCCC3)C(=O)N2	3.1	–	–
O=S(=O)(c1cccc2c(Cl)cccc12)N1CCCNCC1	–	2.8	–
Brc1c(Br)c(Br)c2n[nH]nc2c1Br	–	–	Tm shift (GDP 40 µM): 2.5 Celsius
C=C(Nc1cc(NC(=O)c2cccc(N(C)C)c2)ccc1C)c1ccc(O)cc1	–	2.8	–
O=C1Nc2ccccc2/C1=C\c1cnc[nH]1	–	2.5	–
NC(=O)c1ccc(-c2nc(-c3ccc4c(c3)OCCO4)c(-c3ccccn3)[nH]2)cc1	4.5	–	–
NC1=N/C(=C2/CCNC(=O)c3[nH]c(Br)cc32)C(=O)N1	3.1	–	–
